Assay results published in BindingDB's records for patent US11814384 (Kinnate Biopharma, 2023).

Molecular target: Serine/threonine-protein kinase B-raf (Homo sapiens, UniProt P15056)
Assay: Enzymatic BRAF Kinase Activity Assay
Experimental: Small molecule inhibition of the BRAF kinases was measured using ADP-Glo assay. In the assay, […], resulting in luciferase reaction and luminescent readout with light generated proportional to the relative kinase activity. Compounds diluted in DMSO were used in 10-point, 3-fold dose curve for both assays. Final concentrations of 6 nM BRAF (CarnaBio, Cat. 09-122) or 3 nM RAF1 (CarnaBio, Cat. 09-125) and 30 nM MEK1 substrate (Millipore, Cat. 14-420) were incubated with 3 µM ATP, 10 mM MgCl2, 0.003% Brij-35, 2 mM DTT, 0.05% BSA, 1 mM EGTA, and 50 mM HEPES for 90 minutes at room temp prior to addition of ADP-Glo reagent (Promega, Cat. V9102) for 40 minutes, and detection reagent for 45 minutes. Luminescence was read on an Envision plate reader (PerkinElmer) and percent remaining activity was used to calculate IC50 using a four-parameter fit model using Dotmatics Knowledge Solutions Studies curve fitting (Dotmatics, Bishops Stortford, UK, CM23).

Sequence of Serine/threonine-protein kinase B-raf (P15056 whole entry): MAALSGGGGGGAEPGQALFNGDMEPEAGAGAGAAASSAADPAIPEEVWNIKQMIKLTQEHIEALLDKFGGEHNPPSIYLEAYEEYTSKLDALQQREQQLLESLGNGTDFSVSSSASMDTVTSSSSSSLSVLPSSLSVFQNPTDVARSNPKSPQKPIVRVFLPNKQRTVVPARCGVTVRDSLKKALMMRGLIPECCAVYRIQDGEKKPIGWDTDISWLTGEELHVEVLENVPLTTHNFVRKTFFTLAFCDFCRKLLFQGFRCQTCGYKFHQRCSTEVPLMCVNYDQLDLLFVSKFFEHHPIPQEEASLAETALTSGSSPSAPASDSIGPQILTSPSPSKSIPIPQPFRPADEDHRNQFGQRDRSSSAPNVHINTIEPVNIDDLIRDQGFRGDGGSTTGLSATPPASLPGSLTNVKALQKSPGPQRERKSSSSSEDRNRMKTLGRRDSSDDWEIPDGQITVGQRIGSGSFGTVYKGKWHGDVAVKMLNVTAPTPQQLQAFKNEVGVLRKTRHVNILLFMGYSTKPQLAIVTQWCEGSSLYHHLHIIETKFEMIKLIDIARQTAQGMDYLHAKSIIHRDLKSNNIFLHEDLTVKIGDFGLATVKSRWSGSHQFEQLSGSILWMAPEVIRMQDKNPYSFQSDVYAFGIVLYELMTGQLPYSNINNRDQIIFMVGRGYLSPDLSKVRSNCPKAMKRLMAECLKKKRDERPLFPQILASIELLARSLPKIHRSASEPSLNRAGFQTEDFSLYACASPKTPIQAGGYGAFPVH

SMILES	IC50
Cc1nc2cc(-c3cc(NC(=O)c4coc(C(C)(C)C)n4)c(F)cc3C)cc(N3CCOCC3)n2n1 [US11814384, Example 292]	in the range around 55 nM
Cc1nc2c(N3CCOCC3)cc(-c3cc(NC(=O)c4cnc(C(C)(C)C)o4)c(F)cc3C)cn2n1 [US11814384, Example 293]	in the range around 5.5 nM
Cc1nc2c(N3CCOCC3)cc(-c3cc(NC(=O)c4coc(C(C)(C)C)n4)c(F)cc3C)cn2n1 [US11814384, Example 294]	in the range around 55 nM
Cc1nc2c(N3CCOCC3)cc(-c3cc(NC(=O)c4cnn(C(C)(C)C)n4)c(F)cc3C)cn2n1 [US11814384, Example 303]	in the range around 5.5 nM
Cc1cc(F)c(NC(=O)c2cnc(C(C)(C)C)o2)cc1-c1cc(N2CCOCC2)n2nc(C3CC3)nc2c1 [US11814384, Example 304]	in the range around 5.5 nM
CCc1nc2cc(-c3cc(NC(=O)c4cnc(C(C)(C)C)o4)c(F)cc3C)cc(N3CCOCC3)n2n1 [US11814384, Example 305]	in the range around 55 nM

The remaining lines, values ahead:

IC50	SMILES
in the range around 5.5 nM	CCc1nc2cc(-c3cc(C(=O)Nc4cnn(C(C)(C)C)c4F)c(F)cc3C)cc(N3CCOCC3)n2n1 [US11814384, Example 306]
in the range around 5.5 nM	Cc1cc(F)c(C(=O)Nc2cnn(C(C)(C)C)c2F)cc1-c1cc(N2CCOCC2)n2nc(C3CC3)nc2c1 [US11814384, Example 307]
in the range around 5.5 nM	Cc1cc(F)c(C(=O)Nc2cnn(C(C)(C)C)c2F)cc1-c1cc(N2CCOCC2)c2nc(C(C)C)nn2c1 [US11814384, Example 308]
in the range around 5.5 nM	Cc1cc(F)c(C(=O)Nc2cnn(C(C)(C)C)c2F)cc1-c1cc(N2CCOCC2)c2nc(N(C)C)nn2c1 [US11814384, Example 309]
in the range around 5.5 nM	Cc1nc2c(N3CCOCC3)cc(-c3cc(C(=O)Nc4cn(C5(C)CC5)nc4F)c(F)cc3C)cn2n1 [US11814384, Example 310]
